The target in assay [1] is T1, beta-lactamase from Enterobacter cloacae (Enterobacter cloacae, UniProt P05364).
T1 construct: purchased Sigma-Aldrich, St. Louis, Mo
The assay can be described thus: Assay (I) for beta-lactamase activity (Cefesone hydrolysis, absorbance at 486 nm), product inhibition. The class given is biochemical. The note with it: Cefesone substrate. On the procedure:
A chromogenic cephalosporin, Cefesone, is synthesized and isolated as described by Sutton et al. and used to monitor p-lactamase activity. A typical assay monitors the hydrolysis of Cefesone via the formation of a species which absorbs at 486 nm (molar absorptivity constant 16,000). Absorption is monitored as a function of time in 0.1 M, pH 7.0 sodium phosphate, 0.2 mM Cefesone and 4 volume percent DMSO cosolvent at 30° C. using a Beckman DU-40 spectrophotometer having a circulating water bath attached to the cuvette holder. The assay is initiated by addition and mixing of an appropriate amount of beta-lactamase.
The beta-lactamase assay using enzyme fro Enterobacter cloacae (Sigma-Aldrich, St. Louis, Mo.) was carried out as in Example 1 (assay I) above with compound 2. After the initial rate was determined the reaction was allowed to continue for two hours. Theoretical maximal absorbance at 486 nm is approximately 1.6 while the observed final absorbance was consistently 0.26.
where E is enzyme, S is substrate, P is product, ES is the enzyme-substrate complex, EP is the enzyme product complex, and k1, k−1, k2, and k−2 are rate constants and kcat is the catalytic rate constant. In the case of product inhibition k−2 is large with respect to k2, so as enzyme product accumulates, more enzyme is tied up in the enzyme-product complex and is unavailable for catalysis.

Assay [2] addresses T1, beta-lactamase from Enterobacter cloacae. Put plainly: Time dependent inhibition of beta-lactamase, with dialysis to test for return of activity. The class given is biochemical. To be noted: 10 mL 0.1 units/mL beta-lactamase with and without 500 microM inhibitor, dialysed against 1 L 0.1 M sodium phosphate buffer (pH 7.0) with one exchange.

SMILES strings stand for the structures.

T1 sequence (P05364 21-381): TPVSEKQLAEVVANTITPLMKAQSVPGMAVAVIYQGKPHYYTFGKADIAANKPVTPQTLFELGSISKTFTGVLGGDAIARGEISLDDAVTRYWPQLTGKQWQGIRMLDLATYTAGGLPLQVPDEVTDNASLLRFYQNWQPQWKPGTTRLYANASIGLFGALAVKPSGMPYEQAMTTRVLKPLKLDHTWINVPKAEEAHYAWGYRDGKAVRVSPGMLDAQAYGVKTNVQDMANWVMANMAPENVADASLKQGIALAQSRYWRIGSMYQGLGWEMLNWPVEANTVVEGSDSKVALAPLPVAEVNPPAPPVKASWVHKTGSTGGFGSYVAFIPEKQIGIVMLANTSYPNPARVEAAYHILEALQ

In the case of `O=C(Cc1ccccc1)NC1C(=O)N2C(C(=O)O)=C(/C=C/C3CC3)CSC12` (stereo not shown) [compound 2, 3-vinylcyclopropane-7-(2-phenylacetamido)-3-Cephem-4-carboxylic acid], the “observed final absorbance at 486 nm” value in assay [1] (reaction continued for two hours after the initial rate, theoretical maximal absorbance approximately 1.6) turned out to be 0.26. In addition, the “type of inhibition inferred from final absorbance” value in assay [1] (reaction continued for two hours) is reported as “consistent with product inhibition”. In addition, the “return of beta-lactamase activity after dialysis” value in assay [2] is reported as “no return of activity”.

As to `O=C(Cc1ccccc1)NC1C(=O)N2C(C(=O)O)=C(/C=C/c3ccc(CBr)cc3)CSC12` (stereo not shown) [compound 4, 3-(1-bromomethyl-4-vinylbenzene)-7-(2-phenylacetamido)-3-Cephem-4-carboxylic acid], in assay [2], the “return of beta-lactamase activity after dialysis” value is on record as “no return of activity”.

These data come from US10239890B2, “Broad spectrum beta-lactamase inhibitors” (Gladius Pharmaceuticals Corporation, priority 2007, dated 2019).
